Measured values reported in paper PMC5811606, “Characterization of ^111In-labeled Glucose-Dependent Insulinotropic Polypeptide as a Radiotracer for Neuroendocrine Tumors” (Scientific Reports, 2018).
Where two headings read alike, the source gives them in different places.

What was measured:
[1] = Biodistribution study, BHK-GIPR tumor mice; assay type: in vivo, BALB/c nude mice; settings: female, mouse, iv, total radioactivity, BHK-GIPR tumor BALB/c nude mice, i.v., 0.2 µg, mean n=5; for tissue to tissue ratio at 1 h: 1 h p.i.; for tissue to tissue ratio at 24 h: 24 h p.i.
Experimental: (§1) All animal experiments were approved by the Animal Welfare Body of the Radboud University, Nijmegen, The Netherlands and carried out in accordance with their guidelines. Six to eight weeks old, female BALB/c nude mice and C3H mice were purchased from Janvier labs (Le Genest Saint Isle, France). For all in vivo experiments, 6-8 weeks old female BALB/c nude mice were injected subcutaneously in the right shoulder with 0.2 ml of a 2.5 × 10^7 cells/ml suspension of BHK-GIPR transfected cells or with 0.2 ml of a 2.5 × 10^7 cells/ml suspension of NES2Y cells mixed with matrigel (2:1) in the right shoulder. When the tumor reached a diameter of 2-5 mm, mice were randomly divided in groups.
(§2) BALB/c nude mice bearing BHK-GIPR transfected tumors were injected intravenously with approximately 3 MBq (peptide dose 0.2 µg = 0.04 nmol) of [Lys^37(^111In-DTPA)]N-acetyl-GIP1-42 via the tail vein. At various time points after injection (1, 4 and 24 hours), mice were euthanized by CO2/O2 suffocation and blood, tumor and other relevant tissues were dissected, weighed and measured in a well type gamma counter. The percentage injected dose per gram (%ID/g) was calculated for each tissue. To determine whether the GIP1-42 uptake was GIPR mediated, 25 µg of unlabeled GIP1-42 was co-injected in a separate group (n = 5) and mice were euthanized four hours post-injection. BALB/c nude mice bearing NES2Y tumors (n = 5) were injected intravenously with approximately 3 MBq (peptide dose 0.2 µg = 0.04 nmol) of [Lys^37(^111In-DTPA)]N-acetyl-GIP1-42 via the tail vein. One hour after injection, mice were euthanized by CO2/O2 suffocation and blood, tumor and other relevant tissues were dissected, weighed and measured in a well type gamma counter. The percentage injected dose per gram (%ID/g) was determined for each tissue. To determine whether the GIP1-42 uptake was GIPR mediated, 25 µg of unlabeled GIP1-42 was co-injected in a separate group (n = 2) and mice were euthanized one hours post-injection.

[2] = tested on: subcutaneous BHK-GIPR tumors; assay: Biodistribution study, BHK-GIPR tumor mice; assay type: in vivo, BALB/c nude mice; settings: biodistribution studies in BALB/c nude mice, i.v.
Experimental: as §1, §2

[3] = Biodistribution study, NES2Y tumor mice; assay type: in vivo; settings: female, mouse, iv, total radioactivity, i.v., 0.2 µg; for tissue uptake at 1 h: BALB/c nude; for tissue to tissue ratio at 1 h: NES2Y tumor BALB/c nude mice
Experimental: as §1, §2

[4] = tumor/heart, 0.2 ug, read-out: Tumor/Heart
[5] = tumor/kidney, 0.2 ug, read-out: Tumor/Kidney
[6] = tumor/muscle, 0.2 ug, read-out: Tumor/Muscle

SMILES: CC[C@H](C)[C@H](NC(=O)[C@H](CO)NC(=O)[C@H](Cc1ccc(O)cc1)NC(=O)[C@H](CC(=O)O)NC(=O)[C@H](CO)NC(=O)[C@@H](NC(=O)[C@H](Cc1ccccc1)NC(=O)[C@@H](NC(=O)CNC(=O)[C@H](CCC(=O)O)NC(=O)[C@H](C)NC(=O)[C@H](Cc1ccc(O)cc1)NC(C)=O)[C@@H](C)O)[C@@H](C)CC)C(=O)N[C@@H](C)C(=O)N[C@@H](CCSC)C(=O)N[C@@H](CC(=O)O)C(=O)N[C@@H](CCCCN)C(=O)N[C@H](C(=O)N[C@@H](Cc1c[nH]cn1)C(=O)N[C@@H](CCC(N)=O)C(=O)N[C@@H](CCC(N)=O)C(=O)N[C@@H](CC(=O)O)C(=O)N[C@@H](Cc1ccccc1)C(=O)N[C@H](C(=O)N[C@@H](CC(N)=O)C(=O)N[C@@H](Cc1c[nH]c2ccccc12)C(=O)N[C@@H](CC(C)C)C(=O)N[C@@H](CC(C)C)C(=O)N[C@@H](C)C(=O)N[C@@H](CCC(N)=O)C(=O)N[C@@H](CCCCN)C(=O)NCC(=O)N[C@@H](CCCCN)C(=O)N[C@@H](CCCCN)C(=O)N[C@@H](CC(N)=O)C(=O)N[C@@H](CC(=O)O)C(=O)N[C@@H](Cc1c[nH]c2ccccc12)C(=O)N[C@@H](CCCCNC(=O)CN(CCN(CCN(CC(=O)O)CC(=O)O)CC(=O)O)CC(=O)O)C(=O)N[C@@H](Cc1c[nH]cn1)C(=O)N[C@@H](CC(N)=O)C(=O)N[C@H](C(=O)N[C@H](C(=O)N[C@@H](CCC(N)=O)C(=O)O)[C@@H](C)O)[C@@H](C)CC)C(C)C)[C@@H](C)CC [[Lys^37(^111In-DTPA)]N-acetyl-GIP1-42, metal not drawn]
- tissue to tissue ratio at 4 h ([1]; tumor/blood, 4 h p.i. + xs (25 µg unlabeled GIP1-42), read-out: Tumor/Blood): 29.8
- tissue to tissue ratio at 1 h [1, 4]: 23.6
- tissue to tissue ratio at 4 h ([1]; tumor/heart, 0.2 ug, 4 h p.i., read-out: Tumor/Heart): 29
- tissue to tissue ratio at 24 h [1, 4]: 25.5
- tissue to tissue ratio at 4 h ([1]; tumor/heart, 4 h p.i. + xs (25 µg unlabeled GIP1-42), read-out: Tumor/Heart): 8.89
- tissue to tissue ratio at 1 h [1, 5]: 0.023
- tissue to tissue ratio at 4 h ([1]; tumor/kidney, 0.2 ug, 4 h p.i., read-out: Tumor/Kidney): 0.014
- tissue to tissue ratio at 24 h [1, 5]: 0.011
- tissue to tissue ratio at 4 h ([1]; tumor/kidney, 4 h p.i. + xs (25 µg unlabeled GIP1-42), read-out: Tumor/Kidney): 0.004
- tissue to tissue ratio at 1 h ([1]; tumor/lung, 0.2 ug, read-out: Tumor/Lung): 8.64
- tissue to tissue ratio at 4 h ([1]; tumor/lung, 0.2 ug, 4 h p.i., read-out: Tumor/Lung): 10.1
- tissue to tissue ratio at 4 h ([1]; tumor/lung, 4 h p.i. + xs (25 µg unlabeled GIP1-42), read-out: Tumor/Lung): 2.68
- tissue to tissue ratio at 1 h [1, 6]: 35
- tissue to tissue ratio at 4 h ([1]; tumor/muscle, 0.2 ug, 4 h p.i., read-out: Tumor/Muscle): 40.4
- tissue to tissue ratio at 24 h [1, 6]: 36.4
- tissue to tissue ratio at 4 h ([1]; tumor/muscle, 4 h p.i. + xs (25 µg unlabeled GIP1-42), read-out: Tumor/Muscle): 12.4
- blood clearance [2]: cleared from the blood very rapidly
- tissue uptake at 1 h ([3]; NES2Y tumor, 0.2 ug, 1 h p.i., mean n=5, read-out: Tumor uptake): 0.7 ± 0.2 %ID/g
- tissue uptake at 1 h ([3]; NES2Y tumor, 1 h p.i. + xs (25 µg unlabeled GIP1-42), mean, n=5, read-out: Tumor uptake): 0.6 ± 0.01 %ID/g
- tissue uptake at 1 h ([3]; duodenum, 0.2 ug, 1 h p.i., mean n=5, read-out: Duodenum uptake): 0.42 %ID/g
- tissue uptake at 1 h ([3]; duodenum, 1 h p.i. + xs (25 µg unlabeled GIP1-42), mean, n=5, read-out: Duodenum uptake): 0.369 %ID/g
- tissue uptake at 1 h ([3]; heart, 0.2 ug, 1 h p.i., mean n=5, read-out: Heart uptake): 0.135 %ID/g
- tissue uptake at 1 h ([3]; heart, 1 h p.i. + xs (25 µg unlabeled GIP1-42), mean, n=5, read-out: Heart uptake): 0.103 %ID/g
- tissue uptake at 1 h ([3]; kidney, 0.2 ug, 1 h p.i., mean n=5, read-out: Kidney uptake): 184 %ID/g
- tissue uptake at 1 h ([3]; kidney, 1 h p.i. + xs (25 µg unlabeled GIP1-42), mean, n=5, read-out: Kidney uptake): 180 %ID/g
- tissue uptake at 1 h ([3]; liver, 0.2 ug, 1 h p.i., mean n=5, read-out: Liver uptake): 1.1 %ID/g
- tissue uptake at 1 h ([3]; liver, 1 h p.i. + xs (25 µg unlabeled GIP1-42), mean, n=5, read-out: Liver uptake): 0.827 %ID/g
- tissue uptake at 1 h ([3]; lung, 0.2 ug, 1 h p.i., mean n=5, read-out: Lung uptake): 0.485 %ID/g
- tissue uptake at 1 h ([3]; lung, 1 h p.i. + xs (25 µg unlabeled GIP1-42), mean, n=5, read-out: Lung uptake): 0.474 %ID/g
- tissue uptake at 1 h ([3]; muscle, 0.2 ug, 1 h p.i., mean n=5, read-out: Muscle uptake): 0.069 %ID/g
- tissue uptake at 1 h ([3]; muscle, 1 h p.i. + xs (25 µg unlabeled GIP1-42), mean, n=5, read-out: Muscle uptake): 0.057 %ID/g
- tissue uptake at 1 h ([3]; pancreas, 0.2 ug, 1 h p.i., mean n=5, read-out: Pancreas uptake): 0.201 %ID/g
- tissue uptake at 1 h ([3]; pancreas, 1 h p.i. + xs (25 µg unlabeled GIP1-42), mean, n=5, read-out: Pancreas uptake): 0.158 %ID/g
- tissue uptake at 1 h ([3]; spleen, 0.2 ug, 1 h p.i., mean n=5, read-out: Spleen uptake): 0.462 %ID/g
- tissue uptake at 1 h ([3]; spleen, 1 h p.i. + xs (25 µg unlabeled GIP1-42), mean, n=5, read-out: Spleen uptake): 0.341 %ID/g
- tissue uptake at 1 h ([3]; stomach, 0.2 ug, 1 h p.i., mean n=5, read-out: Stomach uptake): 0.336 %ID/g
- tissue uptake at 1 h ([3]; stomach, 1 h p.i. + xs (25 µg unlabeled GIP1-42), mean, n=5, read-out: Stomach uptake): 0.283 %ID/g
- tissue uptake at 1 h ([3]; whole blood, 0.2 ug, 1 h p.i., mean n=5, read-out: Blood uptake): 0.175 %ID/g
- tissue uptake at 1 h ([3]; whole blood, 1 h p.i. + xs (25 µg unlabeled GIP1-42), mean, n=5, read-out: Blood uptake): 0.214 %ID/g
- tissue to tissue ratio at 1 h ([3]; tumor and blood, 0.2 ug, 1 h p.i., mean n=5, read-out: Tumor/Blood): 3.96
- tissue to tissue ratio at 1 h ([3]; tumor and blood, 1 h p.i. + xs (25 µg unlabeled GIP1-42), mean, n=5, read-out: Tumor/Blood): 3.01
- tissue to tissue ratio at 1 h ([3]; tumor and heart, 0.2 ug, 1 h p.i., mean n=5, read-out: Tumor/Heart): 4.83
- tissue to tissue ratio at 1 h ([3]; tumor and heart, 1 h p.i. + xs (25 µg unlabeled GIP1-42), mean, n=5, read-out: Tumor/Heart): 6.09
- tissue to tissue ratio at 1 h ([3]; tumor and kidney, 0.2 ug, 1 h p.i., mean n=5, read-out: Tumor/Kidney): 0.004
- tissue to tissue ratio at 1 h ([3]; tumor and kidney, 1 h p.i. + xs (25 µg unlabeled GIP1-42), mean, n=5, read-out: Tumor/Kidney): 0.004
- tissue to tissue ratio at 1 h ([3]; tumor and lung, 0.2 ug, 1 h p.i., mean n=5, read-out: Tumor/Lung): 1.38
- tissue to tissue ratio at 1 h ([3]; tumor and lung, 1 h p.i. + xs (25 µg unlabeled GIP1-42), mean, n=5, read-out: Tumor/Lung): 1.33
- tissue to tissue ratio at 1 h ([3]; tumor and muscle, 0.2 ug, 1 h p.i., mean n=5, read-out: Tumor/Muscle): 9.43
- tissue to tissue ratio at 1 h ([3]; tumor and muscle, 1 h p.i. + xs (25 µg unlabeled GIP1-42), mean, n=5, read-out: Tumor/Muscle): 11.1
